In US5210193A, “Piperazine derivatives” (American Cyanamid Company, priority 1990, dated 1993):
Values after ≈ are worked out from the molar mass of the structure shown. Where two headings read alike, the source gives them in different places.

Assays:
Test in all cases: in vitro antibacterial MIC, agar plate dilution
Assay type in all cases: cell-based
[1] = system: Escherichia coli NAR 311; settings: NAR311, 18 hours, 35° C., read-out: MIC
In short: (§1)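 MIC, mcg/ml: lowest concentration with no visible growth after 18 h incubation at 35° C. Mueller-Hinton agar dilution plates; ~10^4 CFU inoculum via Steers replicating device.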

[2] = system: Pseudomonas aeruginosa LL-1244; settings: 35° C.
In short: as §1

[3] = system: Enterobacter aerogenes VGH 84-36; settings: Klebsiella aerogenes, VGH8436, 18 hours, 35° C., read-out: MIC
In short: as §1

[4] = system: Staphylococcus epidermidis IO 83-58; settings: IO8358, 18 hours, 35° C., read-out: MIC
In short: as §1

[5] = system: Klebsiella pneumoniae AD; settings: Klebsiella pneumoniae, 18 h, 35° C., read-out: MIC
In short: as §1

[6] = system: Klebsiella oxytoca MOR 84-28; settings: MOR8428, 18 hours, 35° C.
In short: as §1

[7] = system: Proteus rettgeri CMC 84-41; settings: Providencia rettgeri, CMC8441, 18 h, 35° C., read-out: MIC
In short: as §1

[8] = system: Streptococcus faecalis ATTC 29212; settings: Enterococcus faecalis, ATTC29212, 18 hours, 35° C., read-out: MIC
In short: as §1

[9] = system: Staphylococcus aureus ATTC 29213; settings: 35° C.
In short: as §1

[10] = system: Morganella morganii CMC 84-37; settings: 35° C.
In short: as §1

[11] = system: Escherichia coli CMC 84-16; settings: Escherichia coli, CMC8416, 18 h, 35° C., read-out: MIC
In short: as §1

[12] = system: Staphylococcus aureus CMC 83-128; settings: CMC83128, 18 hours, 35° C., read-out: MIC
In short: as §1

[13] = system: Serratia marcescens K 84-18; settings: 35° C.
In short: as §1

[14] = system: Staphylococcus aureus VGH 84-45; settings: 35° C.
In short: as §1

[15] = system: Staphylococcus epidermidis VGH 84-40; settings: VGH8440, 18 hours, 35° C., read-out: MIC
In short: as §1

[16] = system: Staphylococcus aureus CMC 83-127; settings: Staphylococcus aureus, CMC83127, 18 h, 35° C., read-out: MIC
In short: as §1

[17] = system: Staphylococcus aureus Smith; settings: 35° C.
In short: as §1

[18] = system: Serratia marcescens F 0-35; settings: Serratia marcescens, F035, 18 h, 35° C., read-out: MIC
In short: as §1

[19] = system: Escherichia coli CMC 84-11; settings: 35° C.
In short: as §1

[20] = system: Enterobacter cloacae VGH 84-37; settings: Enterobacter cloacae, VGH8437, 18 h, 35° C., read-out: MIC
In short: as §1

[21] = system: Staphylococcus epidermidis CMC 83-135; settings: CMC83135, 18 hours, 35° C., read-out: MIC
In short: as §1

[22] = system: Klebsiella pneumoniae MOR 84-4; settings: Klebsiella pneumoniae, MOR844, 18 h, 35° C., read-out: MIC
In short: as §1

[23] = system: Streptococcus faecalis VGH 84-65; settings: 35° C.
In short: as §1

[24] = system: Escherichia coli ATCC 25922; settings: 35° C.
In short: as §1

[25] = system: Staphylococcus aureus VGH 84-46; settings: Staphylococcus aureus, VGH8446, 18 h, 35° C., read-out: MIC
In short: as §1

[26] = system: Morganella morganii VGH 84-11; settings: VGH8411, 18 hours, 35° C., read-out: MIC
In short: as §1

[27] = system: Escherichia coli PRNT 311; settings: PRNT311, 18 hours, 35° C., read-out: MIC
In short: as §1

[28] = system: Pseudomonas aeruginosa VGH 84-4; settings: 35° C.
In short: as §1

[29] = system: Enterobacter cloacae K 84-10; settings: Enterobacter cloacae, K8410, 18 h, 35° C., read-out: MIC
In short: as §1

[30] = system: Staphylococcus Spp saprophiticus VGH 84-50; settings: 18 hours, 35° C., read-out: MIC
In short: as §1

[31] = system: Staphylococcus aureus ATCC 25913; settings: ATCC25913, 18 hours, 35° C.
In short: as §1

[32] = Pseudomonas aeruginosa, LL1244, 18 h, read-out: MIC
[33] = Staphylococcus aureus, ATTC29213, 18 h, read-out: MIC
[34] = Morganella morganii, CMC8437, 18 h, read-out: MIC
[35] = Serratia marcescens, K8418, 18 h, read-out: MIC
[36] = Staphylococcus aureus, VGH8445, 18 h, read-out: MIC
[37] = Staphylococcus aureus, 18 h, read-out: MIC
[38] = Escherichia coli, CMC8411, 18 h, read-out: MIC
[39] = Enterococcus faecalis, VGH8465, 18 h, read-out: MIC
[40] = Escherichia coli, ATCC25922, 18 h, read-out: MIC
[41] = Pseudomonas aeruginosa, VGH844, 18 h, read-out: MIC

| MIC [1] | MIC [3] | MIC [4] | MIC [5] | MIC [6] | MIC [7] | MIC [8] | MIC [11] | MIC [12] | MIC [15] | MIC [16] | MIC [18] | MIC [20] | MIC [21] | MIC [22] | MIC [25] | MIC [26] | MIC [27] | MIC [29] | MIC [30] | Compound | further results |
| --- | --- | --- | --- | --- | --- | --- | --- | --- | --- | --- | --- | --- | --- | --- | --- | --- | --- | --- | --- | --- | --- |
| 0.25 µg/mL (≈ 0.605 µM) | < 0.12 µg/mL | < 0.12 µg/mL | < 0.12 µg/mL | < 0.12 µg/mL | < 0.12 µg/mL | < 0.12 µg/mL | < 0.12 µg/mL | < 0.12 µg/mL | < 0.12 µg/mL | < 0.12 µg/mL | < 0.12 µg/mL | < 0.12 µg/mL | < 0.12 µg/mL | < 0.12 µg/mL | < 0.12 µg/mL | < 0.12 µg/mL | < 0.12 µg/mL | < 0.12 µg/mL | < 0.12 µg/mL | O=C(O)c1cn(C2CC2)c2cc(N3CCNC(c4ccsc4)C3)c(F)cc2c1=O (stereo not shown) [Example 60] | MIC ([2]; 18 hours): 4 µg/mL (≈ 9.67 µM); MIC ([9]; 18 hours): < 0.12 µg/mL; MIC ([10]; 18 hours): < 0.12 µg/mL; MIC ([13]; 18 hours): < 0.12 µg/mL; MIC ([14]; 18 hours): < 0.12 µg/mL; MIC ([17]; 18 hours): < 0.12 µg/mL; MIC ([19]; 18 hours): < 0.12 µg/mL; MIC ([23]; 18 hours): < 0.12 µg/mL; MIC ([24]; 18 hours): < 0.12 µg/mL; MIC ([28]; 18 hours): 0.5 µg/mL (≈ 1.21 µM) |
| > 256 µg/mL | > 256 µg/mL | 8 µg/mL (≈ 17.2 µM) | > 256 µg/mL | > 256 µg/mL | 256 µg/mL (≈ 550 µM) | 256 µg/mL (≈ 550 µM) | > 256 µg/mL | 4 µg/mL (≈ 8.59 µM) | 0.5 µg/mL (≈ 1.07 µM) | 0.5 µg/mL (≈ 1.07 µM) | > 256 µg/mL | > 256 µg/mL | 2 µg/mL (≈ 4.3 µM) | > 256 µg/mL | 2 µg/mL (≈ 4.3 µM) | 256 µg/mL (≈ 550 µM) | > 256 µg/mL | > 256 µg/mL | 32 µg/mL (≈ 68.7 µM) | CCn1cc(C(=O)O)c(=O)c2cc(F)c(N3CCNC(c4sc5ccccc5c4C)C3)cc21 (stereo not shown) [Example 22, 1-Ethyl-6-fluoro-1,4-dihydro-7-[3-(3-methylbenzo[b]-thien-2-yl)-1-piperazinyl]-4-oxo-3-quinolinecarboxylic acid] | MIC [2, 32]: > 256 µg/mL; MIC [9, 33]: 4 µg/mL (≈ 8.59 µM); MIC [10, 34]: 256 µg/mL (≈ 550 µM); MIC [31]: 4 µg/mL (≈ 8.59 µM); MIC [13, 35]: > 256 µg/mL; MIC [14, 36]: 2 µg/mL (≈ 4.3 µM); MIC [17, 37]: 2 µg/mL (≈ 4.3 µM); MIC [19, 38]: > 256 µg/mL; MIC [23, 39]: 256 µg/mL (≈ 550 µM); MIC [24, 40]: > 256 µg/mL; MIC [28, 41]: > 256 µg/mL |
| > 256 µg/mL | > 256 µg/mL | > 256 µg/mL | > 256 µg/mL | > 256 µg/mL | > 256 µg/mL | > 256 µg/mL | > 256 µg/mL | > 256 µg/mL | > 256 µg/mL | > 256 µg/mL | > 256 µg/mL | > 256 µg/mL | > 256 µg/mL | > 256 µg/mL | > 256 µg/mL | > 256 µg/mL | > 256 µg/mL | > 256 µg/mL | > 256 µg/mL | CCCCCCCCCCCCOCC1CN(c2cc3c(cc2F)c(=O)c(C(=O)O)cn3CC)CCN1C (stereo not shown) [Example 75, 7-[3-[(Dodecyloxy)methyl]-4-methyl-1-piperazinyl]-1-ethyl-6-fluoro-1,4-dihydro-4-oxo-3-quinolinecarboxylic acid] | MIC [2, 32]: > 256 µg/mL; MIC [9, 33]: > 256 µg/mL; MIC [10, 34]: > 256 µg/mL; MIC [13, 35]: > 256 µg/mL; MIC [14, 36]: > 256 µg/mL; MIC [17, 37]: > 256 µg/mL; MIC [19, 38]: > 256 µg/mL; MIC [23, 39]: > 256 µg/mL; MIC [24, 40]: > 256 µg/mL; MIC [28, 41]: > 256 µg/mL |
